Converted amounts (≈) assume the structure as drawn.
Tests used:
Assay type in all cases: functional
Candida albicans = experiment: Antimicrobial activity against Candida albicans after 72 to 96 hr by two-fold serial dilution method
Rhizopus = experiment: Antimicrobial activity against Rhizopus sp. after 72 to 96 hr by two-fold serial dilution method
Aspergillus flavus = experiment: Antimicrobial activity against Aspergillus flavus after 72 to 96 hr by two-fold serial dilution method
Aspergillus niger = experiment: Antimicrobial activity against Aspergillus niger after 72 to 96 hr by two-fold serial dilution method
Escherichia coli = experiment: Antimicrobial activity against Escherichia coli after 24 hr by two-fold serial dilution method
Salmonella typhi = experiment: Antimicrobial activity against Salmonella enterica subsp. enterica serovar Typhi after 24 hr by two-fold serial dilution method
Staphylococcus aureus = experiment: Antimicrobial activity against Staphylococcus aureus after 24 hr by two-fold serial dilution method
Pseudomonas aeruginosa = experiment: Antimicrobial activity against Pseudomonas aeruginosa after 24 hr by two-fold serial dilution method

C[C@@H]1[C@H](O)[C@@H](C)/C=C/C=C/C=C/C=C/C=C/C=C/C=C/[C@H](O[C@@H]2O[C@H](C)[C@@H](O)[C@H](N)[C@@H]2O)C[C@@H]2O[C@](O)(C[C@@H](O)C[C@@H](O)[C@H](O)CC[C@@H](O)C[C@@H](O)CC(=O)O[C@H]1C)C[C@H](O)[C@H]2C(=O)O [AMPHOTERICIN B]
MIC (Candida albicans): 25 mg/L (≈ 27.1 µM) | MIC (Rhizopus): 25 mg/L (≈ 27.1 µM) | MIC (Aspergillus flavus): 50 mg/L (≈ 54.1 µM) | MIC (Aspergillus niger): 50 mg/L (≈ 54.1 µM)

O=C(O)c1cn(C2CC2)c2cc(N3CCNCC3)c(F)cc2c1=O [CIPROFLOXACIN]
MIC (Escherichia coli): 25 mg/L (≈ 75.4 µM) | MIC (Salmonella typhi): 50 mg/L (≈ 151 µM)

S=C1NNC2(CC(c3ccccc3)OC(c3ccccc3)C2)N1 (centres undefined)
MIC (Candida albicans): 200 mg/L (≈ 615 µM) | MIC (Escherichia coli): 50 mg/L (≈ 154 µM) | MIC (Staphylococcus aureus): 12.5 mg/L (≈ 38.4 µM) | MIC (Rhizopus): 100 mg/L (≈ 307 µM) | MIC (Pseudomonas aeruginosa): 100 mg/L (≈ 307 µM) | MIC (Aspergillus flavus): 100 mg/L (≈ 307 µM) | MIC (Salmonella typhi): 25 mg/L (≈ 76.8 µM) | MIC (Aspergillus niger): 50 mg/L (≈ 154 µM)

S=C1NN(c2ccccc2)C2(CC(c3ccccc3)OC(c3ccccc3)C2)N1 (centres undefined)
MIC (Candida albicans): 50 mg/L (≈ 125 µM) | MIC (Escherichia coli): 50 mg/L (≈ 125 µM) | MIC (Staphylococcus aureus): 50 mg/L (≈ 125 µM) | MIC (Rhizopus): 12.5 mg/L (≈ 31.1 µM) | MIC (Pseudomonas aeruginosa): 25 mg/L (≈ 62.3 µM) | MIC (Aspergillus flavus): 12.5 mg/L (≈ 31.1 µM) | MIC (Salmonella typhi): 50 mg/L (≈ 125 µM) | MIC (Aspergillus niger): 50 mg/L (≈ 125 µM)

CCC1C(c2ccccc2)OC(c2ccccc2)CC12NNC(=S)N2 (centres undefined)
MIC (Candida albicans): 100 mg/L (≈ 283 µM) | MIC (Escherichia coli): 100 mg/L (≈ 283 µM) | MIC (Staphylococcus aureus): 50 mg/L (≈ 141 µM) | MIC (Rhizopus): 100 mg/L (≈ 283 µM) | MIC (Pseudomonas aeruginosa): 100 mg/L (≈ 283 µM) | MIC (Aspergillus flavus): 50 mg/L (≈ 141 µM) | MIC (Salmonella typhi): 25 mg/L (≈ 70.7 µM) | MIC (Aspergillus niger): 25 mg/L (≈ 70.7 µM)

CC1C(c2ccccc2)OC(c2ccccc2)CC12NNC(=S)N2 (centres undefined)
MIC (Candida albicans): 100 mg/L (≈ 295 µM) | MIC (Escherichia coli): 100 mg/L (≈ 295 µM) | MIC (Staphylococcus aureus): 25 mg/L (≈ 73.6 µM) | MIC (Rhizopus): 25 mg/L (≈ 73.6 µM) | MIC (Pseudomonas aeruginosa): 50 mg/L (≈ 147 µM) | MIC (Aspergillus flavus): 50 mg/L (≈ 147 µM) | MIC (Salmonella typhi): 100 mg/L (≈ 295 µM) | MIC (Aspergillus niger): 50 mg/L (≈ 147 µM)

CC1C(c2ccccc2)OC(c2ccccc2)CC12NC(=S)NN2c1ccccc1 (centres undefined)
MIC (Candida albicans): 50 mg/L (≈ 120 µM) | MIC (Escherichia coli): 12.5 mg/L (≈ 30.1 µM) | MIC (Staphylococcus aureus): 25 mg/L (≈ 60.2 µM) | MIC (Rhizopus): 25 mg/L (≈ 60.2 µM) | MIC (Pseudomonas aeruginosa): 25 mg/L (≈ 60.2 µM) | MIC (Aspergillus flavus): 12.5 mg/L (≈ 30.1 µM) | MIC (Salmonella typhi): 25 mg/L (≈ 60.2 µM) | MIC (Aspergillus niger): 25 mg/L (≈ 60.2 µM)

CCC1C(c2ccccc2)OC(c2ccccc2)CC12NC(=S)NN2c1ccccc1 (centres undefined)
MIC (Candida albicans): 25 mg/L (≈ 58.2 µM) | MIC (Escherichia coli): 12.5 mg/L (≈ 29.1 µM) | MIC (Staphylococcus aureus): 25 mg/L (≈ 58.2 µM) | MIC (Rhizopus): 12.5 mg/L (≈ 29.1 µM) | MIC (Pseudomonas aeruginosa): 12.5 mg/L (≈ 29.1 µM) | MIC (Aspergillus flavus): 50 mg/L (≈ 116 µM) | MIC (Salmonella typhi): 25 mg/L (≈ 58.2 µM) | MIC (Aspergillus niger): 25 mg/L (≈ 58.2 µM)
